Measurements from patent US20070191324A1, “Methods for treatment or prophylaxis of aldosterone-mediated pathogenic effects in a subject using an epoxy-steroidal aldosterone antagonist” (priority 1999, published 2007).

Columns and labels:
[1] = system: patients not controlled with ACE-I or ARB; experiment: Co-administration of eplerenone with ACE-I or ARB in mild-moderate hypertension (Example D-9); format: in vivo, human
Procedure: Patients examined in the study were those who currently were treated with an ACE-I and/or ARB and who had DBP ≧95 mmHg and <110 mmHg and SBP <180 mmHg. Previous antihypertensive therapy was withdrawn except a fixed dose of single ACE-I or ARB.

[2] = system: saline-hydrated conscious dogs treated with aldosterone; experiment: Antimineralocorticoid action in saline-hydrated conscious dogs treated with aldosterone (Example A-2); format: in vivo; settings: aldosterone i.v. infusion; antagonist 10 mg/kg orally
[3] = system: diabetic type 2 patients with hypertension and microalbuminuria; experiment: Eplerenone, enalapril and combination in diabetic hypertensives with microalbuminuria, 24 weeks (Examples A-18, D-7); format: in vivo, human
[4] = Pharmacokinetics in moderate hepatic impairment vs matched normal subjects (Example A-13); settings: for AUC / Cmax / AUC(0-inf) / half-life / Tmax: human, plasma, 400 mg; for AUC(0-inf): Single Dose AUC(0-∞), linear kinetics assessment; for half-life: T1/2, Mean;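 on all read-outs here: impaired subjects were Child-Pugh Class B with ascites, compared against healthy volunteers matched for sex, age, weight and smoking, blood sampled before and after dosing on Days 1 and 7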
[5] = system: captopril-treated saline-drinking SHRSP; experiment: Angiotensin II-induced renal damage in captopril-treated saline-drinking SHRSP, Protocol 2 (Example A-8); format: in vivo, rat (SHRSP/A3N)
Procedure: Animals. Studies were conducted in accordance with institutional guidelines using male SHRSP/A3N (generations F-75 to F-78), n=37, from our local colony. These animals were bred from NIH stock, derived from the SHRSP/A3N substrain described originally by Okamoto and coworkers (Okamoto K et al. Circ. Res. 34 and 35 (suppl I):I-143-I-153.). All animals were housed in a room maintained on a 12:12-h light:dark-cycle and an ambient temperature of 22±1° C. in the Animal Care Facility at New York Medical College. Rats were weaned at 4 weeks of age and allowed free access to Purina Lab Chow 5001 (Ralston Purina, St. Louis, Mo.) and tap water until the initiation of experimental protocols.
SHRSP were placed on Stroke-Prone Rodent Diet (#39-288, Zeigler Bros Inc., Gardners, Pa.) and 1% NaCl drinking solution ad libitum starting at 8.3 weeks of age. […] Animals were handled and weighed daily. Urine samples were collected for the assessment of proteinuria. Systolic blood pressure and heart rate were measured each week. After 2 weeks of treatment, animals were decapitated, trunk blood was collected into chilled EDTA tubes, and the kidneys were removed, blotted dry, and immediately weighed. Coronal sections of kidney were fixed and later processed for light microscopic evaluation.
Assays and Analyses. Systolic blood pressure and heart rate of awake animals were measured by tail-cuff plethysmography using a Natsume KN-210 manometer and tachometer (Peninsula Laboratories Inc., Belmont, Calif.). Rats were warmed at 37° C. for 10 min and allowed to rest quietly in a Lucite chamber before measurement of blood pressure. Measurements of urine volume were made gravimetrically. Urinary protein concentration was determined by the sulfosalicylic acid turbidity method. Plasma aldosterone was measured by radioimmunoassay using ^125I-aldosterone as a tracer (Coat-a Count Aldosterone, Diagnostic Products Co., Los Angeles, Calif.).
Histology. Kidneys were preserved in 10% phosphate-buffered formalin. Coronal sections (2-3 μm) were stained with hematoxylin and eosin and examined by light microscopy in a blinded fashion as previously described (Stier C T et al. J Pharmacol Exp Ther (1992) 260:1410-1415). Glomerular damage was categorized as ischemic or thrombotic. Ischemic lesions were defined as retraction of glomerular capillary tufts with or without appreciable mesangiolysis. Glomerular thrombotic lesions were defined as any one of a combination of the following: segmental to global fibrinoid necrosis, focal thrombosis of glomerular capillaries, swelling and proliferation of intracapillary (endothelial and mesangial) and/or extracapillary cells (crescents), and expansion of reticulated mesangial matrix with or without significant hypercellularity. […] Vascular thrombotic lesions were defined as any one or a combination of the following: mural fibrinoid necrosis, extravasation and fragmentation of red blood cells, and luminal and/or mural thrombosis. Proliferative arteriopathy was characterized by proliferation of markedly swollen myointimal cells with swollen round to ovoid vesicular nuclei surrounded by mucinous extracellular matrix (“onion skinning”) often resulting in nodular thickening. Vascular damage was expressed as the number of arteries and arterioles with lesions per 100 glomeruli. The presence of casts and tubular (ischemic) retraction and simplification was assessed semiquantitatively.
Statistical Analysis. Significant effects with respect to treatment and time were determined by two-way analysis of variance. Data with only one grouping variable were analyzed statistically by Student's unpaired t tests. When more than two groups were compared, one-way analysis of variance was performed followed by the post-hoc Newman-Keul's multiple comparison test. Data were analyzed using version 2.01 of the GraphPad Prism statistical software package (GraphPad Software Inc., San Diego, Calif.). P<0.05 was considered statistically significant.

[6] = Pharmacokinetics and absorption of [14C]eplerenone in the rat (Example A-9); format: in vivo; settings: for Cmax: rat, oral 15 mg/kg
Procedure: Plasma, urine and fecal samples were analyzed for total radioactivity.

[7] = addition of eplerenone, 8 weeks
[8] = Mean, Multiple Dose 400 mg QD, Normal
[9] = Mean, Single Dose 400 mg, Normal
[10] = Mean, Multiple Dose 400 mg QD, Moderate
[11] = Mean, Single Dose 400 mg, Moderate
[12] = least squares mean, Multiple Dose 400 mg QD, Moderate Impairment
[13] = least squares mean, Single Dose 400 mg, Moderate Impairment
[14] = captopril 50 mg/kg/d, angiotensin II 25 ng/min, eplerenone 100 mg/kg/d, 2 weeks

SMILES: COC(=O)[C@@H]1CC2=CC(=O)CC[C@]2(C)[C@@]23O[C@@H]2C[C@@]2(C)[C@@H](CC[C@@]24CCC(=O)O4)[C@H]13 [Eplerenone, Pregn-4-ene-7,21-dicarboxylic acid, 9,11-epoxy-17-hydroxy-3-oxo-, γ-lactone, methyl ester, (7α, 11α, 17β)-]
- laboratory abnormalities, K+, adverse events ([1]; addition of eplerenone to ACE-I or ARB): No significant increase in relevant laboratory abnormalities
- SBP & DBP in patients currently treated with ARB [1, 7]: Significant reductions in SBP & DBP
- SBP in patients currently treated with ACE-I [1, 7]: Significant reductions in SBP
- heart rate ([1]; either group): No change in heart rate
- Na/K Ratio [2]: 2.1
- Urinary Excretion Potassium [2]: 11.9 ± 1 mmol/2 h
- Urinary Excretion Sodium [2]: 24.4 ± 3 mmol/2 h
- patients withdrawn for hyperkalemia ([3]; 24 weeks): 6 patients
- reduction in microalbuminuria (UACR) ([3]; 24 weeks): greater reduction in microalbuminuria than enalapril
- subjects with elevated K+ (≧6.0 mEq/L) ([3]; 24 weeks): 8 subjects
- patients requiring addition of hydrochlorothiazide (HCTZ) ([3]; EPL 200 mg QD, ENAL 40 mg QD, EPL 200 mg/ENAL 10 mg, 24 weeks): 36/84
- Adjusted mean change ΔDBP (Week 8-baseline) ([3]; Week 8): −10.2
- Adjusted mean change ΔSBP (Week 8-baseline) ([3]; Week 8): −13.5
- Adjusted mean change ΔDBP (Week 24-baseline) ([3]; Week 24): −13.2
- Adjusted mean change ΔSBP (Week 24-baseline) ([3]; Week 24): −19.5
- tolerability ([3]; in vivo): well tolerated
- time to steady-state concentrations ([4]; 400 mg QD dosing, both subject groups): by the fourth day
- mean AUC higher in moderate impairment than matched normal subjects ([4]; following single dosing): 41-50%
- AUC ([4]; Mean, Multiple Dose 400 mg QD, Moderate hepatic impairment): 48.8 µg·h/mL
- AUC [4, 8]: 33.8 µg·h/mL
- AUC ([4]; Mean, Single Dose 400 mg, Moderate hepatic impairment): 51.4 µg·h/mL
- AUC [4, 9]: 31 µg·h/mL
- Cmax [4, 10]: 4.17 µg/mL
- Cmax [4, 8]: 3.88 µg/mL
- Cmax [4, 11]: 3.79 µg/mL
- Cmax [4, 9]: 3.84 µg/mL
- Cmax [4, 12]: 3.81 µg/mL
- Cmax ([4]; least squares mean, Multiple Dose 400 mg QD, Normal): 3.67 µg/mL
- Cmax [4, 13]: 3.41 µg/mL
- Cmax ([4]; least squares mean, Single Dose 400 mg, Normal): 3.81 µg/mL
- AUC(0-inf) ([4]; Moderate Hepatic Impairment): 49.8 µg·h/mL
- AUC(0-inf) ([4]; Normal): 28.7 µg·h/mL
- half-life ([4]; Multiple Dose 400 mg QD, Moderate): 8.07 h
- half-life ([4]; Multiple Dose 400 mg QD, Normal): 7.61 h
- half-life ([4]; Single Dose 400 mg, Moderate): 6.78 h
- half-life ([4]; Single Dose 400 mg, Normal): 6.31 h
- Tmax [4, 10]: 2.81 h
- Tmax [4, 11]: 2.56 h
- Tmax [4, 9]: 2.03 h
- Tmax [4, 12]: 2.9 h
- Tmax [4, 13]: 2.7 h
- Glomerular damage, Thrombotic [5, 14]: 1.0 ± 0.3 lesions/100 glomeruli
- plasma aldosterone concentration [5, 14]: 231 ± 37 pg/mL
- renal damage ([5]; captopril + angiotensin II 25 ng/min, with eplerenone 100 mg/kg/d or vehicle): 3±1%
- time of peak plasma concentration of total radioactivity ([6]; oral aqueous solution 15 mg/kg, male rat): 1.1 h
- clearance ([6]; plasma, IV 15 mg/kg, male rat): 1.22 L/h/kg
- half-life ([6]; plasma, IV 15 mg/kg, male rat): 0.803 h
- Cmax ([6]; plasma, female rats): 3.54 µg/mL
- Cmax ([6]; plasma, male rats): 1.71 µg/mL
